According to US10676457B2, “Cyclopropylamines as LSD1 inhibitors” (Incyte Corporation, priority 2014, dated 2020):

Molecular target: LSD-1 enzyme (Homo sapiens (Human), UniProt O60341)
Experiment: LANCE LSD1/KDM1A demethylase assay (LSD1 histone demethylase biochemical assay)
Conditions: 1 nM LSD-1 enzyme, 1 hour preincubation at 25° C., 0.4 μM Biotin-labeled Histone H3 peptide substrate
Description: LANCE LSD1/KDM1A demethylase assay—10 μL of 1 nM LSD-1 enzyme (ENZO BML-SE544-0050) in the assay buffer (50 mM Tris, pH 7.5, 0.01% Tween-20, 25 mM NaCl, 5 mM DTT) were preincubated for 1 hour at 25° C. with 0.8 μL compound/DMSO dotted in black 384 well polystyrene plates. […] After stopping the reactions plates were incubated for 30 minutes and read on a PHERAstar FS plate reader (BMG Labtech).

With CS(=O)(=O)N1CC(CCO)(N2CCC(N[C@@H]3C[C@H]3c3ccccc3)CC2)C1 [Example 93, 2-[1-(methylsulfonyl)-3-(4-{[(1R,2S)-2-phenylcyclopropyl]amino}piperidin-1-yl)azetidin-3-yl]ethanol] the IC50 was < 100 nM.
